Source: patent publication US20230265151A1, “GIP/GLP1 CO-AGONIST COMPOUNDS” (priority 2020, published 2023)
Read-outs that look alike come from different tables or passages of the source. *1 amine or outer side, *2 acyl side, *3 side chain or, on linkers, in order; H or OH if unused. Where a SMILES comes first, the peptide text is derived from it. Side-chain parts run from the residue outwards. [ ]: non-standard residue; d: D form. The star is where a group is joined. Decanoyl(10-(4-HOOC-PhO)) = O=C(O)c1ccc(OCCCCCCCCCC(=O)*)cc1; αMePhe(2-F) = C[C@](N)(Cc1ccccc1F)C(=O)O; γGlu = O=C(O)[C@H](CCC(=O)[*:2])N[*:1]; αMeY = C[C@](N)(Cc1ccc(O)cc1)C(=O)O; αMeL = CC(C)C[C@](C)(N)C(=O)O; Orn = NCCC[C@H](N)C(=O)O; AEEA = NCCOCCOCC(=O)O; Aib = CC(C)(N)C(=O)O

Legend:
Type in all cases: cell-based
hGIPR = biological target: T1, hGIPR (Homo sapiens, UniProt P48546); assay: Functional cAMP formation (HTRF) in HEK-293 clonal cells expressing hGIPR, 0.1% bovine casein, without or with 1.0% human serum albumin; conditions: for Emax: percent of maximal response to GIP(1-42)NH2; for EC50: hGIPR EC50, nM (SEM, n), 37° C., geometric mean
T1 construct: expressed in transfected cells
T1 sequence (P48546 22-466): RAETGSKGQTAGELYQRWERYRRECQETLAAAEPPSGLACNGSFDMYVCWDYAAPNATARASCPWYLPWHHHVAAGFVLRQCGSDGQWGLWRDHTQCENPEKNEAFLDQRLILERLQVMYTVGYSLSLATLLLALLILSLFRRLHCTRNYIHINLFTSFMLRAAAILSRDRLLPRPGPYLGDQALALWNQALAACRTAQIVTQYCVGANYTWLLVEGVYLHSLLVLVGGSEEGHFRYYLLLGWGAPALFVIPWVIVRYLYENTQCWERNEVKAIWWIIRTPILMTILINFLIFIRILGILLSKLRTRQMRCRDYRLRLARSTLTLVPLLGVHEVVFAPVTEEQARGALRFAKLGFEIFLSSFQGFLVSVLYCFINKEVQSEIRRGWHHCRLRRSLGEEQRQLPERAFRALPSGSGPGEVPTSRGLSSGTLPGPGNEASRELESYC
In short: (§1)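 Readings of the HTRF 665/620 nm ratio, which falls as cAMP rises, were converted to nM cAMP using a standard curve after 30 min peptide exposure at 37° C.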

hGCGR = biological target: T2, hGCGR (Homo sapiens, UniProt P47871); assay: Functional cAMP formation (HTRF) in HEK-293 clonal cells expressing hGCGR, 0.1% bovine casein, without or with 1.0% human serum albumin; conditions: hGCGR EC50, nM (SEM, n), 37° C., geometric mean
T2 construct: expressed in transfected cells
T2 sequence (P47871 26-477): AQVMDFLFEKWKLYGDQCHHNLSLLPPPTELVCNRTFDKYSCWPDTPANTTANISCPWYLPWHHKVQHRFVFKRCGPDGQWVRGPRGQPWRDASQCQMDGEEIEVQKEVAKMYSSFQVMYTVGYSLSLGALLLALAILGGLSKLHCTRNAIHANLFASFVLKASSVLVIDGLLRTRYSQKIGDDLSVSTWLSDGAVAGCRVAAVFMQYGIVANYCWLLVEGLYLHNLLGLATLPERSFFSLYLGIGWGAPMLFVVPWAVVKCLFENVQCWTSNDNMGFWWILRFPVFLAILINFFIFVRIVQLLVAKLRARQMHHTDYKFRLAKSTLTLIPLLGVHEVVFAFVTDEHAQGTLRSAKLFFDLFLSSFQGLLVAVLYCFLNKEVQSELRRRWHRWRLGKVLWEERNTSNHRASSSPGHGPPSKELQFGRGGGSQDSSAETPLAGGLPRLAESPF
In short: as §1

hGLP-1R = hGLP-1R (Homo sapiens, UniProt P43220); assay: Functional cAMP formation (HTRF) in HEK-293 clonal cells expressing hGLP-1R, 0.1% bovine casein, without or with 1.0% human serum albumin; parameters: expressed in transfected cells; conditions: for Emax: percent of maximal response to GLP-1(7-36)NH2; for EC50: hGLP-1R EC50, nM (SEM, n), 37° C., geometric mean
Chain of hGLP-1R (P43220 24-463): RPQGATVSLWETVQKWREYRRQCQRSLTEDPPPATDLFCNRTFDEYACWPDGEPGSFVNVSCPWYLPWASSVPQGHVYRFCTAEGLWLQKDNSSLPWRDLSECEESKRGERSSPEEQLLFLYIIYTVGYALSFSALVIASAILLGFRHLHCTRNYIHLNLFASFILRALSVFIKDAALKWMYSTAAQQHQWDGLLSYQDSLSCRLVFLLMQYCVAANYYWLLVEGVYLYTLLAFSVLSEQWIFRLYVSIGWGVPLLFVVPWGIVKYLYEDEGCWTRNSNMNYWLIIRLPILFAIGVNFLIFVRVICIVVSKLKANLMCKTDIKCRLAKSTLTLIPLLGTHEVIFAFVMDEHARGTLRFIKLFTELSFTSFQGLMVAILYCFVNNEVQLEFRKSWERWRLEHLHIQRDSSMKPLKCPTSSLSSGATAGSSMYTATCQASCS
In short: as §1

[1] = HEK293, read-out: hGIPR Emax, % ± SEM, 0.1% bovine casein and 1.0% human serum albumin, 37° C.
[2] = cAMP, 0.1% bovine casein (no human serum albumin)
[3] = 0.1% bovine casein and 1.0% human serum albumin
[4] = HEK293, read-out: hGLP-1R Emax, % ± SEM, 0.1% bovine casein and 1.0% human serum albumin, 37° C.
[5] = HEK293, read-out: hGLP-1R Emax, % ± SEM, cAMP, 37° C., 0.1% bovine casein, arithmetic mean
[6] = HEK293, read-out: hGIPR Emax, % ± SEM, cAMP, 37° C., 0.1% bovine casein, arithmetic mean

CC[C@H](C)[C@H](NC(=O)[C@H](CCCN)NC(=O)[C@H](CC(=O)O)NC(=O)[C@H](CC(C)C)NC(=O)[C@](C)(CC(C)C)NC(=O)[C@@H](NC(=O)[C@H](CO)NC(=O)[C@H](Cc1ccc(OC)cc1)NC(=O)[C@H](CC(=O)O)NC(=O)[C@H](CO)NC(=O)[C@@H](NC(=O)[C@](C)(Cc1ccccc1F)NC(=O)[C@@H](NC(=O)CNC(=O)[C@H](CCC(=O)O)NC(=O)C(C)(C)NC(=O)[C@@H](N)Cc1ccc(O)cc1)[C@@H](C)O)[C@@H](C)O)[C@@H](C)CC)C(=O)N[C@@H](C)C(=O)N[C@@H](CCC(N)=O)C(=O)NC(C)(C)C(=O)N[C@@H](CCC(=O)O)C(=O)N[C@@H](Cc1ccccc1)C(=O)N[C@H](C(=O)N[C@@H](CCCCNC(=O)COCCOCCNC(=O)COCCOCCNC(=O)CC[C@H](NC(=O)CCCCCCCCCOc1ccc(C(=O)O)cc1)C(=O)O)C(=O)N[C@@](C)(Cc1ccc(O)cc1)C(=O)N[C@@H](CC(C)C)C(=O)N[C@H](C(=O)N[C@@H](CCCCNC(=O)COCCOCCNC(=O)COCCOCCNC(=O)CC[C@H](NC(=O)CCCCCCCCCOc1ccc(C(=O)O)cc1)C(=O)O)C(=O)NCC(=O)NCC(=O)N1CCC[C@H]1C(=O)N[C@@H](CO)C(=O)N[C@@H](CO)C(=O)NCC(=O)N[C@@H](C)C(=O)N1CCC[C@H]1C(=O)N1CCC[C@H]1C(=O)N1CCC[C@H]1C(=O)N[C@@H](CO)C(N)=O)[C@@H](C)CC)[C@@H](C)CC [Example 279] (H-Y[Aib]EGT[αMePhe(2-F)]TSDY(Me)SI[αMeL]LD[Orn]IAQ[Aib]EFIK([AEEA-AEEA-γGlu-Decanoyl(10-(4-HOOC-PhO))])[αMeY]LIK([AEEA-AEEA-γGlu-Decanoyl(10-(4-HOOC-PhO))])GGPSSGAPPPS-NH2)
Emax (hGIPR; [1]): 88.6%
EC50 (hGIPR; [2]): 0.0305 nM
EC50 (hGCGR; [3]): > 9950 nM
EC50 (hGCGR; [2]): > 9950 nM
Emax (hGLP-1R; [4]): 114%
Emax (hGLP-1R; [5]): 112%
EC50 (hGLP-1R; [3]): 36.6 nM
EC50 (hGLP-1R; [2]): 0.406 nM

CC[C@H](C)[C@H](NC(=O)[C@H](CCCN)NC(=O)[C@H](CC(=O)O)NC(=O)[C@H](CC(C)C)NC(=O)[C@](C)(CC(C)C)NC(=O)[C@@H](NC(=O)[C@H](CO)NC(=O)[C@H](Cc1ccc(OC)cc1)NC(=O)[C@H](CC(=O)O)NC(=O)[C@H](CO)NC(=O)[C@@H](NC(=O)[C@](C)(Cc1ccccc1F)NC(=O)[C@@H](NC(=O)CNC(=O)[C@H](CCC(=O)O)NC(=O)C(C)(C)NC(=O)[C@@H](N)Cc1ccc(O)cc1)[C@@H](C)O)[C@@H](C)O)[C@@H](C)CC)C(=O)N[C@@H](C)C(=O)N[C@@H](CCC(N)=O)C(=O)NC(C)(C)C(=O)N[C@@H](CCCCNC(=O)COCCOCCNC(=O)COCCOCCNC(=O)CC[C@H](NC(=O)CCCCCCCCCOc1ccc(C(=O)O)cc1)C(=O)O)C(=O)N[C@@H](Cc1ccccc1)C(=O)N[C@H](C(=O)N[C@H](CCC(=O)O)C(=O)N[C@@](C)(Cc1ccc(O)cc1)C(=O)N[C@@H](CC(C)C)C(=O)N[C@H](C(=O)N[C@@H](CCCCNC(=O)COCCOCCNC(=O)COCCOCCNC(=O)CC[C@H](NC(=O)CCCCCCCCCOc1ccc(C(=O)O)cc1)C(=O)O)C(=O)NCC(=O)NCC(=O)N1CCC[C@H]1C(=O)N[C@@H](CO)C(=O)N[C@@H](CO)C(=O)NCC(=O)N[C@@H](C)C(=O)N1CCC[C@H]1C(=O)N1CCC[C@H]1C(=O)N1CCC[C@H]1C(=O)N[C@@H](CO)C(N)=O)[C@@H](C)CC)[C@@H](C)CC [Example 280]
Emax (hGIPR; [1]): 88.5%
Emax (hGIPR; [6]): 105%
EC50 (hGIPR; [3]): 4.84 nM
EC50 (hGIPR; [2]): 0.0229 nM
EC50 (hGCGR; [3]): > 9950 nM
EC50 (hGCGR; [2]): > 9950 nM
Emax (hGLP-1R; [4]): 105%
EC50 (hGLP-1R; [2]): 0.346 nM

CC[C@H](C)[C@H](NC(=O)[C@H](CC(C)C)NC(=O)[C@](C)(Cc1ccc(O)cc1)NC(=O)[C@@H](CCC(=O)O)NC(=O)[C@@H](NC(=O)[C@H](Cc1ccccc1)NC(=O)[C@H](CCCCNC(=O)COCCOCCNC(=O)COCCOCCNC(=O)CC[C@H](NC(=O)CCCCCCCCCOc1ccc(C(=O)O)cc1)C(=O)O)NC(=O)C(C)(C)NC(=O)[C@H](CCC(N)=O)NC(=O)[C@H](C)NC(=O)[C@H](CCCCNC(=O)COCCOCCNC(=O)COCCOCCNC(=O)CC[C@H](NC(=O)CCCCCCCCCOc1ccc(C(=O)O)cc1)C(=O)O)NC(=O)[C@H](CCCN)NC(=O)[C@H](CC(=O)O)NC(=O)[C@H](CC(C)C)NC(=O)[C@](C)(CC(C)C)NC(=O)[C@@H](NC(=O)[C@H](CO)NC(=O)[C@H](Cc1ccc2ccccc2c1)NC(=O)[C@H](CC(=O)O)NC(=O)[C@H](CO)NC(=O)[C@@H](NC(=O)[C@](C)(Cc1ccccc1F)NC(=O)[C@@H](NC(=O)CNC(=O)[C@H](CCC(=O)O)NC(=O)C(C)(C)NC(=O)[C@@H](N)Cc1ccc(O)cc1)[C@@H](C)O)[C@@H](C)O)[C@@H](C)CC)[C@@H](C)CC)C(=O)N[C@@H](CCC(=O)O)C(=O)NCC(=O)NCC(=O)N1CCC[C@H]1C(=O)N[C@@H](CO)C(=O)N[C@@H](CO)C(=O)NCC(=O)N[C@@H](C)C(=O)N1CCC[C@H]1C(=O)N1CCC[C@H]1C(=O)N1CCC[C@H]1C(=O)N[C@@H](CO)C(N)=O [Example 281]
Emax (hGIPR; [1]): 97.9%
Emax (hGIPR; [6]): 110%
EC50 (hGIPR; [3]): 1.87 nM
EC50 (hGIPR; [2]): 0.0187 nM
EC50 (hGCGR; [3]): > 9950 nM
EC50 (hGCGR; [2]): > 9950 nM
Emax (hGLP-1R; [4]): 91.7%
EC50 (hGLP-1R; [2]): 0.252 nM

CC[C@H](C)[C@H](NC(=O)[C@H](CCCN)NC(=O)[C@H](CC(=O)O)NC(=O)[C@H](CC(C)C)NC(=O)[C@](C)(CC(C)C)NC(=O)[C@@H](NC(=O)[C@H](CO)NC(=O)[C@H](Cc1ccc2ccccc2c1)NC(=O)[C@H](CC(=O)O)NC(=O)[C@H](CO)NC(=O)[C@@H](NC(=O)[C@](C)(Cc1ccccc1F)NC(=O)[C@@H](NC(=O)CNC(=O)[C@H](CCC(=O)O)NC(=O)C(C)(C)NC(=O)[C@@H](N)Cc1ccc(O)cc1)[C@@H](C)O)[C@@H](C)O)[C@@H](C)CC)C(=O)N[C@@H](C)C(=O)N[C@@H](CCC(N)=O)C(=O)NC(C)(C)C(=O)N[C@@H](CCC(=O)O)C(=O)N[C@@H](Cc1ccccc1)C(=O)N[C@H](C(=O)N[C@@H](CCCCNC(=O)COCCOCCNC(=O)COCCOCCNC(=O)CC[C@H](NC(=O)CCCCCCCCCOc1ccc(C(=O)O)cc1)C(=O)O)C(=O)N[C@@](C)(Cc1ccc(O)cc1)C(=O)N[C@@H](CC(C)C)C(=O)N[C@H](C(=O)N[C@@H](CCCCNC(=O)COCCOCCNC(=O)COCCOCCNC(=O)CC[C@H](NC(=O)CCCCCCCCCOc1ccc(C(=O)O)cc1)C(=O)O)C(=O)NCC(=O)NCC(=O)N1CCC[C@H]1C(=O)N[C@@H](CO)C(=O)N[C@@H](CO)C(=O)NCC(=O)N[C@@H](C)C(=O)N1CCC[C@H]1C(=O)N1CCC[C@H]1C(=O)N1CCC[C@H]1C(=O)N[C@@H](CO)C(N)=O)[C@@H](C)CC)[C@@H](C)CC [Example 283]
Emax (hGIPR; [1]): 114%
EC50 (hGCGR; [3]): > 9950 nM
EC50 (hGCGR; [2]): > 9950 nM
Emax (hGLP-1R; [4]): 96.6%
EC50 (hGLP-1R; [2]): 1.14 nM

CC[C@H](C)[C@H](NC(=O)[C@H](CCCN)NC(=O)[C@H](CC(=O)O)NC(=O)[C@H](CC(C)C)NC(=O)[C@](C)(CC(C)C)NC(=O)[C@@H](NC(=O)[C@H](CO)NC(=O)[C@H](Cc1ccc2ccccc2c1)NC(=O)[C@H](CC(=O)O)NC(=O)[C@H](CO)NC(=O)[C@@H](NC(=O)[C@](C)(Cc1ccccc1F)NC(=O)[C@@H](NC(=O)CNC(=O)[C@H](CCC(=O)O)NC(=O)C(C)(C)NC(=O)[C@@H](N)Cc1ccc(O)cc1)[C@@H](C)O)[C@@H](C)O)[C@@H](C)CC)C(=O)N[C@@H](C)C(=O)N[C@@H](CCC(N)=O)C(=O)NC(C)(C)C(=O)N[C@@H](CCCCNC(=O)COCCOCCNC(=O)COCCOCCNC(=O)CC[C@H](NC(=O)CCCCCCCCCOc1ccc(C(=O)O)cc1)C(=O)O)C(=O)N[C@@H](Cc1ccccc1)C(=O)N[C@H](C(=O)N[C@H](CCC(=O)O)C(=O)N[C@@](C)(Cc1ccc(O)cc1)C(=O)N[C@@H](CC(C)C)C(=O)N[C@H](C(=O)N[C@@H](CCCCNC(=O)COCCOCCNC(=O)COCCOCCNC(=O)CC[C@H](NC(=O)CCCCCCCCCOc1ccc(C(=O)O)cc1)C(=O)O)C(=O)NCC(=O)NCC(=O)N1CCC[C@H]1C(=O)N[C@@H](CO)C(=O)N[C@@H](CO)C(=O)NCC(=O)N[C@@H](C)C(=O)N1CCC[C@H]1C(=O)N1CCC[C@H]1C(=O)N1CCC[C@H]1C(=O)N[C@@H](CO)C(N)=O)[C@@H](C)CC)[C@@H](C)CC [Example 284]
Emax (hGIPR; [6]): 98.3%
EC50 (hGIPR; [2]): 0.0389 nM
EC50 (hGCGR; [3]): > 9950 nM
EC50 (hGCGR; [2]): > 9950 nM
Emax (hGLP-1R; [4]): 112%
Emax (hGLP-1R; [5]): 110%
EC50 (hGLP-1R; [2]): 0.505 nM
